Results published in patent publication US11518981B2, “Methods of enhancing engraftment activity of hematopoietic stem cells” (CHILDREN'S HOSPITAL MEDICAL CENTER, priority 2017, dated 2022).

What was measured:
CD34^+38^−90^+ HSCs = assay: cell cycle analysis (Ki-67 / Hoechst) of HSCs; format: cell-based, human; details: 72 h, RV transduced cycling HSCs; MK-8776 1 μM, PV1019 1 μM, PGE2 10 μM, Birb 796 600 nM
human CD34^+ cells = assay: GFP marking in human grafts of NSG mice; format: in vivo; details: limiting dilution transplant; also long-termed secondary human grafts
Text: NOD.Cg-Prkdcscid Il2rgtm1Wjl/SzJ (NSG) mice were purchased from The Jackson Laboratory (Bar Harbor, Me.). All animals were bred and maintained in a specific pathogen-free environment and all experiments were approved by the Institutional Animal Care and Use (IACUC) Committee. Male and female NSG mice aged 8 to 14 weeks old were fed doxycycline chow (TestDiet; Modified Prolab RMH-1500 with 0.0625% doxycycline) a week prior to, during and for 2 weeks post irradiation. Human engraftment was analyzed in bone marrow (BM), via BM aspirates performed at 6 and 12 weeks from left and right femurs. After sacrifice at 24 weeks, marrow from all of the primary mice (1 T) was harvested. Peripheral blood analysis was also performed in some experiments. Secondary transplants (2 T) were performed after mouse CD45^+ cells were depleted from BM harvested from each 1 T mouse separately, using Biotin Rat Anti-Mouse CD45 (BD Biosciences 553078) and Streptavidin Particles Plus-DM (BD Biosciences 557812) and injected into one irradiated (280 cGy) secondary NSG mouse. […] Total ROS and mitochondrial specific ROS were detected using 10 μM CM-H2DCFDA (ThermoFisher Scientific C6827) and 5 μM MITOSOXTM Red (Red Mitochondrial Superoxide Indicator) (ThermoFisher Scientific M36008) respectively, following manufacturer's instructions.

γH2AX = assay: DNA damage response (γH2AX, 53BP1) by immunofluorescence and flow cytometry; format: cell-based, human; details: 72 h, RV transduced cycling HSCs
Procedure: For EdU incorporation assay, cells were incubated with 10 μM EdU throughout the culture period and the CLICK-IT® Plus EdU Pacific Blue Flow Cytometry Assay Kit (ThermoFisher Scientific C10636) was used for staining. […] Samples were run through a FACSCANTOTM, FORTESSATM, or LSR 2 flow cytometers (BD Biosciences), and the data was analyzed by […] software (BD). […] II cell sorter. FACS sorted CD34+38-90+ cells were fixed in 2% paraformaldehyde and permeabilized using 0.1% […] polyether alcohol, Sigma-Aldrich). […] Cells were counterstained and mounted with […]® antifade mounting medium with DAPI (H-1200 Vector Laboratories). Images were obtained using a Nikon 90i upright microscope.

HIF-1α = HIF-1α staining in HSCs (immunofluorescence, flow cytometry); format: cell-based, human; details: 72 h, RV transduced CD34^+38^−90^+ cells
Text: FACS sorted CD34+38−90+ cells were fixed in 2% paraformaldehyde and permeabilized using 0.1% TRITON™ X-100 (Alkaryl polyether alcohol, Sigma-Aldrich). Cells were then stained with primary antibodies Anti-phospho-H2AX (Ser 139) (Millipore, 05-636), anti-53BP1 antibody (Novus Biologicals, NB100-904), or anti-HIF-1α (ab103063). For secondary antibodies, Alexa Fluor 594 conjugated Goat anti-Rabbit IgG (H+L) (A-11037) or, ALEXA FLUOR® 647 conjugated Goat anti-Rabbit IgG (H+L) (A-21245) (both from ThermoFisher Scientific) were used for 1 hour at 37° C. Cells were counterstained and mounted with […]® antifade mounting medium with DAPI (H-1200 Vector Laboratories). Images were obtained using a Nikon 90i upright microscope.

[1] = tested on: human MPB derived CD34^+ cells; assay: multi-lineage reconstitution (myeloid / B-lymphoid) in bone marrow of NSG mice; format: in vivo; details: limiting dilution transplant, 42 h LV; 6 mo post 1 T
Text: NOD.Cg-Prkdcscid Il2rgtm1Wjl/SzJ (NSG) mice were purchased from The Jackson Laboratory (Bar Harbor, Me.). All animals were bred and maintained in a specific pathogen-free environment and all experiments were approved by the Institutional Animal Care and Use (IACUC) Committee. Male and female NSG mice aged 8 to 14 weeks old were fed doxycycline chow (TestDiet; Modified Prolab RMH-1500 with 0.0625% doxycycline) a week prior to, during and for 2 weeks post irradiation. Human engraftment was analyzed in bone marrow (BM), via BM aspirates performed at 6 and 12 weeks from left and right femurs. After sacrifice at 24 weeks, marrow from all of the primary mice (1 T) was harvested. Peripheral blood analysis was also performed in some experiments. Secondary transplants (2 T) were performed after mouse CD45^+ cells were depleted from BM harvested from each 1 T mouse separately, using Biotin Rat Anti-Mouse CD45 (BD Biosciences 553078) and Streptavidin Particles Plus-DM (BD Biosciences 557812) and injected into one irradiated (280 cGy) secondary NSG mouse. For calculating competitive repopulating units (CRU) from limiting dilution transplantation, the L-CALC^TM software (Stem Cell Technologies) was used. All of the mice used for this study were randomly assigned to a treatment group. No animals were excluded from the analysis. PE-Cyanine 7 or APC-EFLUOR® 780, APC- or PE-conjugated antibodies directed to human CD34 (BD Biosciences 560710 or 555824), CD38 (eBiosciences, San Diego, Calif. 47-0389-42), CD90 (BioLegend 328120), CD45RA (eBiosciences 17-0458-42), CD49f (BD Biosciences 555736), CD45 (BD 55485 or Biolegend 304026), CD33 (eBiosciences 25-0338-42), CD19 (BD Biosciences 557791), or CD3 (BD Biosciences 555340). Cells ( 5×10^5-1×10^6) were used to label with antibodies as per manufacturer instructions with the appropriate isotype controls. For phospho-flow, primary antibodies phospho-[…]), phospho-p44/42 MAPK (ERK 1⁄2) […]; […]), and phospho-JNK […] PE conjugate; […]) (all from Cell Signaling) were used for staining overnight followed by wash and secondary antibody stain including Goat anti-Rabbit IgG (H+L) or Goat anti-Rabbit IgG (H+L) or Pacific Blue (P-10994) antibody. Apoptosis assay was performed using PE Annexin V Apoptosis Detection Kit (BD Biosciences 559763) according to the manufacturer's instructions. Total ROS and mitochondrial specific ROS were detected using 10 μM CM-H2DCFDA (ThermoFisher Scientific C6827) and 5 μM MITOSOXTM Red (Red Mitochondrial Superoxide Indicator) (ThermoFisher Scientific M36008) respectively, following manufacturer's instructions.

Compound | transduced HSCs accumulated in the G2M phase (CD34^+38^−90^+ HSCs) | GFP marking (human CD34^+ cells) | γH2AX levels in the transduced HSCs (γH2AX) | HIF-1α levels in cycling transduced HSCs (HIF-1α) | lineage skewing [1]
Cn1cc(-c2cnn3c(N)c(Br)c([C@@H]4CCCNC4)nc23)cn1 [Chk1i] | Fewer transduced-HSCs were found to accumulate in the G2M phase with Chk1i (albeit not statistically significant) | – | – | – | –
CCCCC(C)(C)[C@H](O)/C=C/[C@H]1[C@H](O)CC(=O)[C@@H]1C/C=C\CCCC(=O)O [PGE2, 16,16 dimethyl Prostaglandin E2] | tended to reduce | did not have any effect | no effect | could be stabilized | sufficient to restore the lineage skewing
